According to PMC7894426, “Influence of verapamil on the pharmacokinetics of rotundic acid in rats and its potential mechanism” (Pharmaceutical Biology, 2021):
Read-outs that look alike come from different tables or passages of the source.

Key:
[1] = In vivo pharmacokinetic study of oral rotundic acid with or without verapamil pre-treatment; design: species or system Sprague–Dawley rats; settings: rats, RA 10 mg/kg oral; for AUC(0-inf) / CL/F / Cmax / Vd/F / half-life / AUC(0-t) / Tmax: male, Sprague-Dawley, rat, plasma, po, 10 mg/kg; for AUC(0-t): read-out: AUC0–24
Protocol: Male Sprague–Dawley rats (180–220 g) were purchased from SiPeiFu (Beijing) Biotechnology Co., Ltd. (Beijing, China). Rats were housed in a breeding room at stable temperature (22 ± 3 °C), humidity (55 ± 10%), and under non-pathogenic conditions. All animals were placed under the above conditions and acclimatized to the facilities for one week, then fasted for 12 h with water ad libitum before the experiments. The protocols involving experimental animals were carried out by the guidelines of the Animal Ethical Committee of Tianjin Institute of Pharmaceutical Research (Tianjin, China).
To evaluate the influence of verapamil on the in vivo pharmacokinetics of RA, the male Sprague–Dawley rats were randomly divided into three groups (n = 6), including a control group and two pre-treatment groups. The pre-treatment groups received verapamil orally by gavage at a dose of 25 and 50 mg/kg (dissolved in 5% gum arabicin at a concentration of 5 and 10 mg/mL, respectively) separately for 15 min before the administration of RA at a dose of 10 mg/kg (dissolved in 5% gum arabicin at a concentration of 2 mg/mL). The dose of verapamil selected was equated to the human maximum recommended daily dose of 240–480 mg for a 60 kg person following allometric conversion (US Food and Drug Administration [2005]; Cao et al. [2007]). The control group received equal amounts of the vehicle (5% gum arabicin) before the oral administration of RA. Whole blood samples (200 µL) were collected from the orbital venous plexus at 0.0833, 0.25, 0.5, 1, 1.5, 2, 3, 4, 6, 8, 10 and 24 h after oral administration. All samples were transferred into heparinized tubes and then centrifuged for 5 min at 12,000 rpm and 4 °C immediately. The supernatants of separated plasma samples were harvested and stored at −20 °C until LC-MS/MS analysis.
RA was extracted from the sample using a simple protein precipitation method with a 3-fold volume of an organic solvent consisting of methanol-acetonitrile (1:2, v/v). Briefly, a 50 µL aliquot of plasma sample was thawed at room temperature and was then precipitated by 50 µL of methanol and 100 µL of acetonitrile containing IS (10 ng/mL). The sample was mixed uniformly for 1 min, and then centrifuged for 10 min at 12,000 rpm and 4 °C. Subsequently, 10 µL supernatants were injected into the LC-MS/MS system for analysis.
The separation and mass spectrometric analysis of the RA was achieved on a Waters ACQUITY^TM Ultra Performance LC system coupled with a Tandem Quadrupole (TQ) Detector equipped with an electrospray ionization (ESI) source. Chromatographic separation was performed at 40 °C with an ACQUITYUPLC BEH C8 column (1.7 µm, 2.1 × 50 mm, Waters Corp., USA). The mobile phase consisted of methanol-acetonitrile (50:50, v/v, mobile phase A), and 5 mM ammonium formate-methanol (90:10, v/v, mobile phase B). While the gradient elution procedure was employed for the separation of analytes at a flow rate of 0.3 mL/min. The optimized gradient elution program was as follows: 0 min 60% B, 3 min 10% B, 4 min 10% B, and 5 min 60% B. The injection volume was 10 µL at an autosampler temperature of 6 °C. The analytical run time for each sample was 5.0 min. The HPLC elution was injected into waste for the first 1.2 min, into the MS detector for the next 1 min, and back into waste for the remaining run time. RA and IS were monitored with the mass spectrometer by negative ESI source mode. The ionization source parameters were set as follows: 2.5 kV, 30 V, 120 °C, 350 °C, 50 L/h, and 650 L/h for capillary voltage, cone voltage, source temperature, desolvation temperature, cone gas, and desolvation gas, respectively. The optimal collision energy was operated at 30 V for RA and 20 V for IS. Argon was used as the collision gas. Samples were analyzed by multiple reaction monitoring (MRM) of the transitions of m/z 487.3 → 469.3 for RA and m/z 256.0 → 227.0 for IS, respectively. The dwell time was set at 0.2 s per transition. Data were acquired by MassLynx 4.1 software. […]

MDCKII-MDR1 cells = assay: MTS cell-proliferation assay; assay type: cell-based, canine; settings: 25 µM RA
Caco-2 cells = assay: MTS cell-proliferation assay; assay type: cell-based, human; settings: 25 µM RA
P-gp = P-gp (Homo sapiens, UniProt P08183); assay: Bidirectional transport across MDCKII-MDR1 cell monolayers (P-gp substrate assessment); settings: dog, MDCK-MDR1, pH 7.4
Chain of P-gp (P08183 whole entry): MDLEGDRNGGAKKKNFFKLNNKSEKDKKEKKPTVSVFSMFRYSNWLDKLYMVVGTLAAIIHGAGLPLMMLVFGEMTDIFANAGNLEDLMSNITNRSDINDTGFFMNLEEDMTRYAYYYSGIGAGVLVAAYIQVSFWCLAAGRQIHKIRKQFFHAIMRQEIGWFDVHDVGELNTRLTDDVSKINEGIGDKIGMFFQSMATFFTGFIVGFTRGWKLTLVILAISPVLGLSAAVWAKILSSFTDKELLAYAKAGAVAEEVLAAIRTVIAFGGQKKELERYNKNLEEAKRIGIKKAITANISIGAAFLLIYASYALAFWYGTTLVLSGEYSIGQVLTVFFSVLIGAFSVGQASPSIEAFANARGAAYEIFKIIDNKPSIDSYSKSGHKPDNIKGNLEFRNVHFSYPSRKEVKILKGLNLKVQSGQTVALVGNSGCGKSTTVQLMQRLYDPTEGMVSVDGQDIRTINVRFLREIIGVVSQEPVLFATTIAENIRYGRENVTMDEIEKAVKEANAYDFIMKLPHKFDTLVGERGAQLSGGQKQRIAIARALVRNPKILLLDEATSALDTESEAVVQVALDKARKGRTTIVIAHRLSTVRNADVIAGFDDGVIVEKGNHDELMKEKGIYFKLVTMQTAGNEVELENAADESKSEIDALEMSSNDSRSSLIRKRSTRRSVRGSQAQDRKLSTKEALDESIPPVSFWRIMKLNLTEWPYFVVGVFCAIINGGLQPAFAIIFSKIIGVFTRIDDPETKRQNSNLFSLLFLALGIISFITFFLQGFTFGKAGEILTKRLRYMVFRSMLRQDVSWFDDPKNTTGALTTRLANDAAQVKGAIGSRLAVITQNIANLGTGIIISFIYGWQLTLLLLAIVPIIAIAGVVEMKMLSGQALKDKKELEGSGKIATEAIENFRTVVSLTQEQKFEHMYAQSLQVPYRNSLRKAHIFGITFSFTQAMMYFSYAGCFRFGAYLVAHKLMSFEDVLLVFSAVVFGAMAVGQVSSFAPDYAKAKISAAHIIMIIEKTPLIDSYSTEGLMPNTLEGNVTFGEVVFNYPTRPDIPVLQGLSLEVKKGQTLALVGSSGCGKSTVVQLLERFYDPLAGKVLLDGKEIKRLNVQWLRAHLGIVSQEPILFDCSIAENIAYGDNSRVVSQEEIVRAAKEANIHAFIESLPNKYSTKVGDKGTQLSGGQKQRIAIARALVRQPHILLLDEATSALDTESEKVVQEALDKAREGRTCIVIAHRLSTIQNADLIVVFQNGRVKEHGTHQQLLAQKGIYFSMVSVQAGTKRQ
Protocol: MDCKII-Mock and MDCKII-MDR1 cells were given as a gift by Fuji Biomedix Co., Ltd. (Japan) and cultured in DMEM supplemented with 10% FBS and 1% antibiotic (10,000 U/mL penicillin and 10 mg/mL streptomycin). Caco-2 cell line, the human epithelial cell used in this assay, was purchased from the Cell Bank of the Chinese Academy of Sciences (Shanghai, China) and maintained between 30 and 45 passages. It was cultured according to the previous report (Guo et al. [2018]; Xiang et al. [2020]). Briefly, the Caco-2 cells were cultured in DMEM supplemented with 10% FBS, 1% NEAA, and 1% antibiotic (10,000 U/mL penicillin and 10 mg/mL streptomycin). All cells were maintained in a 5% CO2 atmosphere and 90% relative humidity at 37 °C.
For transport studies, the MDCKII-Mock, MDCKII-MDR1, and Caco-2 cells were seeded at a density of 2 × 10^5 cells/mL on Costar Transwell inserts (1.12 cm^2 surface, polycarbonate, 12 mm diameter, 0.4 µm pore size). MDCKII-Mock and MDCKII-MDR1 cells were cultured for 5–7 days in medium, for the first four days, the medium was replaced freshly every two days, and then daily. The Caco-2 cells were cultured for 19–21 days in the medium. For the first 2 weeks, the medium was replaced freshly every two days, and then daily. […] The transepithelial electrical resistance (TEER) of the monolayer cells was measured by Millcell ERS-2 (Millipore, USA), and only the monolayer with TEER exceeding 150 Ω·m^2 (MDCKII-Mock and MDCKII-MDR1 cells) and 400 Ω·m^2 (Caco-2 cells) were used for the transport experiment. The membrane integrity and transport function of MDCKII-Mock, MDCKII-MDR1, and Caco-2 cell monolayers were further verified with Lucifer yellow and Rhodamine-123. The qualified monolayers were used for transport studies.
Before the transport studies, the media in both chambers of the transwell were replaced by warm (37 °C) Hank’s balanced salt solution (HBSS), and then the MDCKII-Mock, MDCKII-MDR1, and Caco-2 cell monolayers were incubated at 37 °C and 5% CO2 for 20 min. […] Our transport studies included absorptive direction transport from the apical (AP) side to the basolateral (BL) side and secretory direction transport from the BL side to the AP side. […] After administration, the transwell plate was placed in a thermostatic oscillator shaking at 60 rpm and 37 °C. At 10, 20, 40 and 60 min, respectively, 50 µL incubating sample aliquot was collected from the receiver chamber and immediately replaced by the same volume of fresh HBSS (37 °C). In addition, the membrane integrity of MDCKII-Mock, MDCKII-MDR1, and Caco-2 cell monolayers were evaluated with Lucifer yellow (30 µM) and TEER value, and the efflux activity of P-gp was validated using a typical P-gp substrate rhodamine-123 (10 µM).
The parameters Papp, RE, and NRE were calculated using the following equation: Papp=(ΔQ/Δt)×[1/(A×C0)]

[2] = pre-treatment of verapamil 25 mg/kg
[3] = pre-treatment of verapamil 50 mg/kg

- AUC(0-inf) ([1]; control (vehicle)): 432 ± 64.2 ng·h/mL
- CL/F ([1]; control (vehicle)): 393 mL/min/kg
- Cmax ([1]; control (vehicle)): 108 ± 10.5 ng/mL
- Vd/F ([1]; control (vehicle)): 64.6 ± 22.6 L/kg
- half-life ([1]; control (vehicle)): ~2 h
- AUC(0-t) ([1]; control (vehicle)): 405 ± 68.2 ng·h/mL
- Tmax ([1]; control (vehicle), read-out: Tmax): 0.292 ± 0.228 h
- AUC(0-inf) [1, 2]: 539 ± 53.6 ng·h/mL
- CL/F [1, 2]: 312 mL/min/kg
- Cmax [1, 2]: 117 ± 14.9 ng/mL
- Vd/F [1, 2]: 66.7 ± 21.1 L/kg
- half-life [1, 2]: 2.44 ± 0.572 h
- AUC(0-t) [1, 2]: 496 ± 63 ng·h/mL
- Tmax ([1]; pre-treatment of verapamil 25 mg/kg, read-out: Tmax): 0.625 ± 0.306 h
- AUC(0-inf) [1, 3]: 836 ± 116 ng·h/mL
- CL/F [1, 3]: 203 mL/min/kg
- Cmax [1, 3]: 219 ± 36.8 ng/mL
- Vd/F [1, 3]: 41.3 ± 12.3 L/kg
- half-life [1, 3]: 2.31 ± 0.404 h
- AUC(0-t) [1, 3]: 782 ± 115 ng·h/mL
- Tmax ([1]; pre-treatment of verapamil 50 mg/kg, read-out: Tmax): 1.17 ± 0.516 h
- Tmax ([1]; without verapamil, read-out: time to peak plasma concentration (converted)): ~0.25 h
- t1/2 ([1]; control (vehicle)): 1.85 ± 0.390 h
- Papp A→B at 20 min (P-gp): 4.22 ± 0.611 ×10⁻⁶ cm/s
- Papp B→A at 20 min (P-gp): 12.1 ± 1.55 ×10⁻⁶ cm/s
- efflux ratio at 20 min (P-gp): 2.87
SMILES: C[C@@H]1CC[C@]2(C(=O)O)CC[C@]3(C)C(=CC[C@@H]4[C@@]5(C)CC[C@H](O)[C@@](C)(CO)[C@@H]5CC[C@]43C)[C@@H]2[C@]1(C)O [RA, Rotundic acid]
- effect on cell proliferation (MTS) (MDCKII-MDR1 cells): did not influence the cell proliferation
- effect on cell proliferation (MTS) (Caco-2 cells): did not influence the cell proliferation
